Reference: patent US20050234248A1, “Method of producing preparations rich in tocotrienol” (Vis-Vitalis Lizenz- Und Handels Gmbh, priority 2002, published 2005)

Tested on: human serum loaded with p-benzoquinone (quinhydron radicals)
Assay: Antioxidant capacity: human serum loaded with p-benzoquinone, colorimetric determination of p-dihydroquinone at 500 nm
Details: for Antiox-Titer: human serum, p-benzoquinone load, extinction at 500 nm/60 sec; for 1 mg of tocotrienol effect in μg radicals/ml · sec.: per 1 mg of tocotrienol; for Radicals μg/ml · sec: radicals inhibited, converted from extinction
Description: In this examining method, human serum is subjected to the oxidative stress of a defined amount of para-benzoquinone. By adding defined amounts of the antioxidants to be tested (natural tocotrienol mixture of wheat bran oil, wheat germ oil, tocopherol acetat, D-alpha-tocopherol), the antioxidant load bearing capacity of the test sample is quantitated by calorimetric determination of the para-dihydroquinone that has been reduced from para-benzoquinone. […] Human donor blood is recovered from the vein without any additives and centrifuged at 800-1000 g after having been left standing for 1 h in the refrigerator (approximately +4° C.-+7° C.). The separated serum fractions are removed and pooled. The serum can be stored at -22° C. for about 14 days or immediately be used for the required measurements. To determine the antioxidant capacity of an antioxidant, the serum is radically loaded in stages. p-Benzoquinone was used for radical formation. In a physiological environment (pH=slightly alkaline), this substance is converted into the relatively stable radical anion of the quinhydrone system. In doing so, one hydrogen atom (1 proton/1 electron) of p-benzoquinone is taken up. The further reaction to the stable end product p-dihydroquinone takes place inversely proportionally, at pH 6.9-7.4 within minutes, and primarily linearly to the antioxidant content (reducing agent) in the reaction environment. Thus, the conditions for the applicability of Lambert-Beer's law have been met for determining the end product (dihydro-quinone) as a typically coloured substance. The comparatively stable radical anion (quinhydrone) is converted into the dihydroquinone in a second reduction step by taking up a further electrone (hydrogen from the available antioxidants). […] The calorimetric determination of the amount of end product is effected at λ=500 nm. […] With a linear extinction increase-and a linearly growing consumption of the antioxidant-active substance, the reacted portions can be precisely calculated from the stoichiometric reaction conditions. According to Michaelis/[…] and Pauling, respectively (Holleman-Wiberg; Lehrbuch der Anorganischen Chemie, de Gruyter-Verlag (1995)), the reaction intensity up to the dihydroquinone will depend on the ratio of the concentrations of oxidised to reduced. I.e., the higher the reduction (antioxidant) supply, the more the reaction will be inhibited, the content of the dihydroquinone forming will decrease. Thus, this reaction is excellently suited to be used in redox systems for finely dosed quantitative determinations for substances that are reducingly active. In three parallel measurement series, serum samples ([…] each) of the pool with p-benzoquinone are loaded in three stages (10, 20 and 30 μg). […] In the calculated reaction quantities, the mean of the 60 second value corresponds to the defined titer (=one third reaction). This value precisely results from the graphic illustration of the mean values as extinction curve. All further tests with antioxidant addition are comparatively related to this defined calibration value of the serum pool without antioxidant addition (i.e., with an increasing supply of antioxidants in the serum, the extinction must drop for dihydroquinone). Three parallel measurement series of serum samples were carried out under addition of 500 μg/ml of preparation according to the invention to determine the antioxidant capacity of the tocotrienol-rich wheat bran oils according to the invention. […] Referring to the curve of the extinction values of the comparative serum without additions and the stoichiometric reaction conditions applied (serum determination/concentration of p-benzoquinone/amount per ml of serum dilution), the conversion factor extinction to radical inhibition will result from this calibration system. […] For a more encompassing evaluation of the product quality, the comparison with other antioxidants is required. […]

| Compound | Antiox-Titer | 1 mg of tocotrienol effect in μg radicals/ml · sec. | Radicals μg/ml · sec |
| --- | --- | --- | --- |
| CC(=O)Oc1c(C)c(C)c2c(c1C)CCC(C)(CCC[C@H](C)CCC[C@H](C)CCCC(C)C)O2 (stereo partly drawn) [Tocopherol acetate, D,L-alpha-tocopherol acetate] | 0.125 | 0.014 μg radicals/ml · sec. | 3.51 μg/ml · sec |
| Cc1c(C)c2c(c(C)c1O)CC[C@@](C)(CCC[C@H](C)CCC[C@H](C)CCCC(C)C)O2 [D-alpha-Tocopherol, D-alpha-tocopherol] | 0.06 | 0.00674 μg radicals/ml · sec. | 1.6848 μg/ml · sec |
